Among the data in patent US12059422B2 (MEI Pharma, Inc., priority 2011, dated 2024) are IC50 and α/δ ratio values, retold here.

Type in all cases: biochemical
One test deals with T1, PI3K alpha (Homo sapiens, UniProt P42336).
T1 construct: purchased Invitrogen Corp., Carlsbad, CA, USA
Briefly: Luciferase-based luminescence assay (KinaseGlo), PI3K alpha enzymatic activity. To be noted: inhibition of enzymatic activity, 25 μM ATP, read-out: IC50 p110α. Here is the method: (§1) PI3K catalyzes the conversion of phosphatidylinositol-4,5-bisphosphate (PIP2) and ATP to phosphatidylinositol-3,4,5-trisphosphate (PIP3) and ADP. For all assays, the reaction buffer comprised 50 mM HEPES, pH 7.5, 3 mM MgCl2, 1 mM EGTA, 100 mM NaCl, 0.03% CHAPS and 2 mM DTT. Compounds for testing were dissolved and serially diluted in 100% DMSO (total of 10 concentrations), then diluted 1:25 in reaction buffer.
(§2) PI3K alpha and PI3K delta enzymatic activity was determined by measuring the amount of ATP consumed following the kinase reaction using a luciferase-based luminescence assay (KinaseGlo®, Promega Corp., Madison, WI, USA). PI3K enzyme solutions were prepared by diluting PI3K alpha (Invitrogen Corp., Carlsbad, CA, USA) or PI3K delta (Millipore, Billerica, MA, USA) in reaction buffer, to 4× the final assay concentration (final concentrations of enzymes were 1.65 nM and 6.86 nM for PI3K alpha and PI3K delta, respectively). A substrate solution was prepared by mixing PIP2 and ATP in reaction buffer at 2× the final assay concentration (final concentrations were 50 μM and 25 μM for PIP2 and ATP respectively). 2.5 μL each of the compound and kinase mixtures were added to individual wells of white low volume 384-well assay plates and mixed by shaking. The reactions were started by adding 5 μL of substrate mixture per well and shaking. The assay plates were covered and reactions were allowed to proceed for 1 hour (PI3K alpha) or 2 hours (PI3K delta), after which 10 μL of Kinase Glo® reagent was added. The plates were briefly centrifuged and incubated for 10 minutes, after which luminescence was measured using a FlexStation plate reader (Molecular Devices, Sunnyvale, CA, USA). IC50 values were determined by curve fitting using Graphpad Prism software (Graphpad Software, La Jolla, CA, USA).
(In general: In Kinase-Glo more light means more ATP remaining.)

The target in the next test is T2, PI3K delta (Homo sapiens, UniProt O00329).
T2 construct: purchased Millipore, Billerica, MA, USA
T2 sequence (O00329 whole entry, species assumed): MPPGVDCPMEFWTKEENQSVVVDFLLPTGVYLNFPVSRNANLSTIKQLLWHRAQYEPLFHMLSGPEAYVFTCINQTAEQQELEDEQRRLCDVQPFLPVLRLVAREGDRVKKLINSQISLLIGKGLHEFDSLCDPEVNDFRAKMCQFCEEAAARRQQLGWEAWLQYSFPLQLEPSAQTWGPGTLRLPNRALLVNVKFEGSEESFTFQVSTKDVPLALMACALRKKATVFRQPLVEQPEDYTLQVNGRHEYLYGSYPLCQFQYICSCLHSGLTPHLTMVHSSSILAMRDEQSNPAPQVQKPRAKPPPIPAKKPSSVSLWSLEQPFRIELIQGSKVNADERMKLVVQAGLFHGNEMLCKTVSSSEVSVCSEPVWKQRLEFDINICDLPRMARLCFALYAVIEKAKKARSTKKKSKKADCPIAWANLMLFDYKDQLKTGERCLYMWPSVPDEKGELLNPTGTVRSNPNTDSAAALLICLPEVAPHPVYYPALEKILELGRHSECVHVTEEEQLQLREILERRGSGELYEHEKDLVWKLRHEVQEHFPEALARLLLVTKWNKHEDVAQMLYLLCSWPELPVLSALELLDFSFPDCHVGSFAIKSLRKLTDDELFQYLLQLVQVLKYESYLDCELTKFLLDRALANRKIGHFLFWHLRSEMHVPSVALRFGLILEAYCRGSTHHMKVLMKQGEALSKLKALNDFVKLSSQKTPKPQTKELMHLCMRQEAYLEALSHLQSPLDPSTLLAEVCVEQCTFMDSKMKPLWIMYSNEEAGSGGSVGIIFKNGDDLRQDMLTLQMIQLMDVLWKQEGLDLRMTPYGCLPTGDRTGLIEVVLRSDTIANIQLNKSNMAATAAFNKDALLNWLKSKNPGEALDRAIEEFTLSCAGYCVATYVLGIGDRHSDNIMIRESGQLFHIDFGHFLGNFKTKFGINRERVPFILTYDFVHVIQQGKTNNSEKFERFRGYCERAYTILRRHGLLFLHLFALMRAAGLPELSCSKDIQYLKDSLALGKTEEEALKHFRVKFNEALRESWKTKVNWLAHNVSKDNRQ
T2 sequence (P27986 whole entry partner, species assumed): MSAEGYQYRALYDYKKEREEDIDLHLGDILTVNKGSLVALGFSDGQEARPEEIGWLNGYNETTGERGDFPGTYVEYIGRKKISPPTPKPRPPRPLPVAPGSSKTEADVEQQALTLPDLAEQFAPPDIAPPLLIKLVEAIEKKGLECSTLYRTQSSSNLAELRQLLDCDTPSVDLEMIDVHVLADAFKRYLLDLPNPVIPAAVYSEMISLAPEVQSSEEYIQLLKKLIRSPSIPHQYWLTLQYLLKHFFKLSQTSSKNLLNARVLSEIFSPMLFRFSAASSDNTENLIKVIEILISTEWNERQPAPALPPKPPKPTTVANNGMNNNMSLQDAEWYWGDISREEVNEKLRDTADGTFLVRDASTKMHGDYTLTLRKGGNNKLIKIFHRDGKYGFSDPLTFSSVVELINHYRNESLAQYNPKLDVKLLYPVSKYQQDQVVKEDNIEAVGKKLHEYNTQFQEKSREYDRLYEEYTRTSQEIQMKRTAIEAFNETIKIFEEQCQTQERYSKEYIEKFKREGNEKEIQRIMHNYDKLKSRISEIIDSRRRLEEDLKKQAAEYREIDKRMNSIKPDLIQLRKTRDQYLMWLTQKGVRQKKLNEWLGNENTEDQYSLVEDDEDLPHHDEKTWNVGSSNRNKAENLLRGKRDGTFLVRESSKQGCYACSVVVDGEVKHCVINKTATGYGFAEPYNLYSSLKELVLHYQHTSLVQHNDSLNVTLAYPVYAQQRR
Briefly: Luciferase-based luminescence assay (KinaseGlo), PI3K delta enzymatic activity. To be noted: for IC50: inhibition of enzymatic activity, KinaseGlo, 25 μM ATP, read-out: IC50 p110δ; for α/δ ratio: ratio of enzymatic IC50 against PI3Kα over IC50 against PI3Kδ. The procedure:
as §1, §2

A further test addresses mTOR (Homo sapiens, UniProt P42345). Briefly: mTOR inhibition (Table 1). As to conditions: Table 1, no method described.

T1 sequence (P42336 whole entry, species assumed): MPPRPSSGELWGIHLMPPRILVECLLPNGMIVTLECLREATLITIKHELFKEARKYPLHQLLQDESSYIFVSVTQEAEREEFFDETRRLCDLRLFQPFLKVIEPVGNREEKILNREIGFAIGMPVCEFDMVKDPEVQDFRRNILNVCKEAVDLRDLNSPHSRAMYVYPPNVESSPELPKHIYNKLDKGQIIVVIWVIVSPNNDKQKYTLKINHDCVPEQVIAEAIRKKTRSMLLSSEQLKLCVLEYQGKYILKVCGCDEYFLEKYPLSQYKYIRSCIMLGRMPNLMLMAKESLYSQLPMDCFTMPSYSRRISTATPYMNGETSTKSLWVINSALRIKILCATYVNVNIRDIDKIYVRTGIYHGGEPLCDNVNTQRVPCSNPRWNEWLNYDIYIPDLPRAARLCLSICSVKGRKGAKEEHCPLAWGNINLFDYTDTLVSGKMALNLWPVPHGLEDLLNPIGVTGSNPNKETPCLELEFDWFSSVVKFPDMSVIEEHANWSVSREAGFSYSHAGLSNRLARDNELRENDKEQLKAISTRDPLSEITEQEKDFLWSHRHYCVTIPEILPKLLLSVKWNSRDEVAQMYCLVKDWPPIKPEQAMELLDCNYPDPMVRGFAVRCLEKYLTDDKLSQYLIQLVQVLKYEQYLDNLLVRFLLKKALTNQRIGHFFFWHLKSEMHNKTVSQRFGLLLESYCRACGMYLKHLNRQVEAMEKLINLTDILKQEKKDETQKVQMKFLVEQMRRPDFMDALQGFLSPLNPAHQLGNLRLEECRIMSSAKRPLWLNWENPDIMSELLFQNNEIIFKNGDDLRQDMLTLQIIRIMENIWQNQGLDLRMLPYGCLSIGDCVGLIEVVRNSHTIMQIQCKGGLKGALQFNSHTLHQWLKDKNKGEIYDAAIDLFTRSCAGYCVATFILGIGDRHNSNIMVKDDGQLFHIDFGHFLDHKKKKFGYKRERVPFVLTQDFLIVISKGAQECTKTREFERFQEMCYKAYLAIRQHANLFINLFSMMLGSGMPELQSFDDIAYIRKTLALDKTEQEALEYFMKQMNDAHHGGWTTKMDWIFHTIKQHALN
T1 sequence (P27986 whole entry partner, species assumed): as the sequence (P27986 whole entry partner, species assumed) above

On to `CC(Nc1nc(N2CCOCC2)nc(-n2c(C(F)F)nc3ccccc32)n1)c1ccccc1` (centres unmarked) [Compound A1, 4-(2-(difluoromethyl)-1H-benzo[d]imidazol-1-yl)-6-morpholino-N-(1-phenylethyl)-1,3,5-triazin-2-amine], for which the IC50 (as a rule, the concentration that gives 50% inhibition) on PI3K alpha was more than 500 nM. At PI3K delta, the IC50 was not above 100 nM and the α/δ ratio result is reported as “C’”.

As for `C[C@@H](Nc1nc(N2CCOCC2)nc(-n2c(C(F)F)nc3ccccc32)n1)c1ccccc1` [Compound A3, (R)-4-(2-(difluoromethyl)-1H-benzo[d]imidazol-1-yl)-6-morpholino-N-(1-phenylethyl)-1,3,5-triazin-2-amine], the IC50 at PI3K alpha and at PI3K delta was more than 500 nM throughout. Further, the α/δ ratio result on PI3K delta is listed as “D’”.

Turning to `CC[C@@H](Nc1nc(N2CCOCC2)nc(-n2c(C(F)F)nc3ccccc32)n1)c1ccccc1` [Compound A6, (R)-4-(2-(difluoromethyl)-1H-benzo[d]imidazol-1-yl)-6-morpholino-N-(1-phenylpropyl)-1,3,5-triazin-2-amine], the half-inhibitory concentration (IC50) on PI3K alpha was more than 500 nM. Further, at PI3K delta, the IC50 is more than 500 nM and the α/δ ratio result is recorded as “B’”.

`CC(C)(Nc1nc(N2CCOCC2)nc(-n2c(C(F)F)nc3ccccc32)n1)c1ccc(Cl)cc1` [Compound A8, N-(2-(4-chlorophenyl)propan-2-yl)-4-(2-(difluoromethyl)-1H-benzo[d]imidazol-1-yl)-6-morpholino-1,3,5-triazin-2-amine]: the half-maximal inhibitory concentration (IC50) on PI3K alpha is more than 500 nM. Besides, at PI3K delta, the IC50 was more than 500 nM and the α/δ ratio result is recorded as “C’”.

Consider `COc1ccc(C(C)(C)Nc2nc(N3CCOCC3)nc(-n3c(C(F)F)nc4ccccc43)n2)cc1` [Compound A9, 4-(2-(difluoromethyl)-1H-benzo[d]imidazol-1-yl)-N-(2-(4-methoxyphenyl)propan-2-yl)-6-morpholino-1,3,5-triazin-2-amine], for which the IC50 on PI3K alpha is more than 500 nM. Further, on PI3K delta, the IC50 was more than 500 nM and the α/δ ratio result is “D’”.

On to `COC(=O)[C@H](Nc1nc(N2CCOCC2)nc(-n2c(C(F)F)nc3ccccc32)n1)c1ccccc1` [Compound A11, (R)-methyl 2-((4-(2-(difluoromethyl)-1H-benzo[d]imidazol-1-yl)-6-morpholino-1,3,5-triazin-2-yl)amino)-2-phenylacetate], for which the IC50 is 200 to 500 nM at PI3K alpha and not above 100 nM on PI3K delta. The α/δ ratio entry on PI3K delta was “D’”.

For the compound `COC(=O)[C@@H](Nc1nc(N2CCOCC2)nc(-n2c(C(F)F)nc3ccccc32)n1)c1ccccc1` [Compound A12, (S)-methyl 2-((4-(2-(difluoromethyl)-1H-benzo[d]imidazol-1-yl)-6-morpholino-1,3,5-triazin-2-yl)amino)-2-phenylacetate], the values for the IC50 on PI3K alpha and on PI3K delta were more than 500 nM and 200 to 500 nM, respectively. Further, on PI3K delta, the α/δ ratio result was “D’”.

Consider `CC(C)(Nc1nc(N2CCOCC2)nc(-n2c(C(F)F)nc3ccccc32)n1)c1ccc2ccccc2c1` [Compound A13, 4-(2-(difluoromethyl)-1H-benzo[d]imidazol-1-yl)-6-morpholino-N-(2-(naphthalen-2-yl)propan-2-yl)-1,3,5-triazin-2-amine], for which the IC50 on PI3K alpha was more than 500 nM. Further, at PI3K delta, the half-inhibitory concentration (IC50) is more than 500 nM and the α/δ ratio result is “A’”.

Consider `CC(C)(Cc1ccccc1Br)Nc1nc(N2CCOCC2)nc(-n2c(C(F)F)nc3ccccc32)n1` [Compound A17, 4-(2-(difluoromethyl)-1H-benzo[d]imidazol-1-yl)-N-(1-(2-bromophenyl)-2-methylpropan-2-yl)-6-morpholino-1,3,5-triazin-2-amine], for which the IC50 on PI3K alpha and at mTOR was more than 500 nM each time.

Take `FC(F)c1nc2ccccc2n1-c1nc(NCc2ccccc2)nc(N2CCOCC2)n1` [Ref 1, N-benzyl-4-(2-(difluoromethyl)-1H-benzo[d]imidazol-1-yl)-6-morpholino-1,3,5-triazin-2-amine, reference compound]: the IC50 on PI3K alpha fell in the range of 100 to 200 nM. On PI3K delta, the IC50 lay in the range of 100 to 200 nM and the α/δ ratio result is recorded as “D’”.
